The values below come from patent US11352350B2, “IRAK degraders and uses thereof” (Kymera Therapeutics, Inc., priority 2018, dated 2022).

In one experiment the test system is OCI-LY10. The experiment in a line: CTG Cell Viability Assay - OCI-LY10. The format is cell-based, human. To be noted: OCI-LY10, 4 days, read-out: CTG Cell Viability Assay - OCI-LY10: Average external-IC50. The method, boiled down: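 OCI-LY10 cells exposed to 9-dose, 1:3 dilutions from 10 μM top (0.2% DMSO) for 4 days at 37° C, 5% CO2. Viability by CellTiter-Glo luminescence; IC50 from three-parameter logistic fit.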

A further experiment concerns the target IRAK4 (Homo sapiens (Human), UniProt Q9NWZ3). In words: IRAK4 MSD degradation in OCI-LY10. The format is cell-based. The method, boiled down:
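OCI-LY10 cells treated with 8-point 1:3 dilutions (top 1 to 10 μM final) for 4 to 24 h at 37° C. Lysate IRAK4 measured by MSD sandwich immunoassay (2H9 capture, Y279 detection, SULFO-TAG anti-rabbit). DC50 from three-parameter logistic fit.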

The mark [1] stands for this setting: OCI-LY10, 4 hrs, MSD, read-out: IRAK4 MSD degradation in OCI-LY10 at 4 hrs: Average external-Abs DC50.
[2] abbreviates: OCI-LY10, 24 hrs, MSD, read-out: IRAK4 MSD degradation in OCI-LY10 at 24 hrs: Average external-Abs DC50.

Read-outs that look alike come from different tables or passages of the source.

Chain of IRAK4 (Q9NWZ3 whole entry): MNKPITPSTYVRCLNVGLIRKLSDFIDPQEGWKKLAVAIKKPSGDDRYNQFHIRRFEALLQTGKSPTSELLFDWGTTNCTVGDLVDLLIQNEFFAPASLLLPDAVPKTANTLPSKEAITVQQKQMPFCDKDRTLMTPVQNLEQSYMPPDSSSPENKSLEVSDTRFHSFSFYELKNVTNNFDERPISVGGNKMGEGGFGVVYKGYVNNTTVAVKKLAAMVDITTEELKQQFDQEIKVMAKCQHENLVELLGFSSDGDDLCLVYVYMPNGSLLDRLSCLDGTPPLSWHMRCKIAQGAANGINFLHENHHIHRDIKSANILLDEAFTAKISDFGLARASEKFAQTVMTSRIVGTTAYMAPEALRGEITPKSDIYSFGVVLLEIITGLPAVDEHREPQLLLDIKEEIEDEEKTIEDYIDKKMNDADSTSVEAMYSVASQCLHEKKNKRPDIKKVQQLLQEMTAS

What is called IC50 is the concentration needed to halve the response being measured. A word on the DC50: it is the midpoint of the concentration-degradation curve. `CN(CCN1CCO[C@@H](CCNc2cccc3c2C(=O)N(C2CCC(=O)NC2=O)C3=O)C1)C[C@H]1CC[C@H](n2cc(NC(=O)c3coc(-c4ccnc(NCC5CC5)c4)n3)c(C(F)F)n2)CC1` (some centres unmarked) [I-339]: in the experiment with OCI-LY10 (Homo sapiens, OCI-Ly10, 96 h), the half-maximal inhibitory concentration (IC50) lay within 50 to 100 nM. For the same compound, the half-maximal degradation concentration (DC50) on IRAK4 (setting [1]) and on IRAK4 (setting [2]) was 10 to 100 nM in each case.
On to `O=C1CCC(N2C(=O)c3cccc(NCCCOC4CCN(C[C@H]5CC[C@H](n6cc(NC(=O)c7cnn8ccc(N9C[C@H]%10C[C@@H]9CO%10)nc78)c(C(F)F)n6)CC5)CC4)c3C2=O)C(=O)N1` (some centres unmarked) [I-371], for which the 50% inhibitory concentration (IC50) with OCI-LY10 (Homo sapiens, OCI-Ly10, 96 h) lay within 50 to 100 nM. The DC50 at IRAK4 (setting [2]) lay within 10 to 100 nM.
For the compound `COc1cc(C(=O)N2CCC(CCCN(C)C[C@H]3CC[C@H](n4cc(NC(=O)c5coc(-c6ccnc(NCC7CC7)c6)n5)c(C(F)F)n4)CC3)CC2)ccc1NC(=O)[C@@H]1N[C@@H](CC(C)(C)C)[C@](C#N)(c2ccc(Cl)cc2F)[C@H]1c1cccc(Cl)c1F` [I-141], the concentration for half-maximal inhibition (IC50) with OCI-LY10 (Homo sapiens, OCI-Ly10, 96 h) was greater than 1000 nM. Also, the DC50 on IRAK4 (setting [1]) and on IRAK4 (setting [2]) was greater than 1000 nM in each case.
Consider `Cn1c(=O)n(C2CCC(=O)NC2=O)c2cccc(CCCOC3CCN(C[C@H]4CC[C@H](n5cc(NC(=O)c6cnn7ccc(N8CCOCC8)nc67)c(C(C)(C)O)n5)CC4)CC3)c21` (some centres unmarked) [I-216], for which the half-maximal inhibitory concentration (IC50) in the experiment with OCI-LY10 (Homo sapiens, OCI-Ly10, 96 h) was greater than 1000 nM. For the same compound, the DC50 on IRAK4 (setting [1]) is 100 to 1000 nM.
Regarding `CN(CCOCCOCCOC12CC3CC(CC(C3)C1)C2)C[C@H]1CC[C@H](n2cc(NC(=O)c3coc(-c4ccnc(NCC5CC5)c4)n3)c(C(F)F)n2)CC1` [I-174], in the experiment with OCI-LY10 (Homo sapiens, OCI-Ly10, 96 h), the IC50 was greater than 1000 nM. For the same compound, the DC50 on IRAK4 (setting [1]) and at IRAK4 (setting [2]) was greater than 1000 nM in each case.
For the compound `Cn1c(=O)n(C2CCC(=O)NC2=O)c2cccc(CCCOCC3CCN(C[C@H]4CC[C@H](n5cc(NC(=O)c6cnn7ccc(N8CCNCC8)nc67)c(C(F)F)n5)CC4)CC3)c21` (some centres unmarked) [I-164], the half-inhibitory concentration (IC50) in the experiment on OCI-LY10 (Homo sapiens, OCI-Ly10, 96 h) is greater than 1000 nM. The DC50 on IRAK4 (setting [1]) was less than 10 nM.
Regarding `CN(Cc1ccc(-n2cc(NC(=O)c3coc(-c4ccnc(NCC5CC5)c4)n3)c(C(F)F)n2)cc1)C1CCN(Cc2cccc3c2n(C)c(=O)n3C2CCC(=O)NC2=O)CC1` (centres unmarked) [I-389], the concentration for half-maximal inhibition (IC50) with OCI-LY10 (Homo sapiens, OCI-Ly10, 96 h) was less than 50 nM. Besides, the half-maximal degradation concentration (DC50) on IRAK4 (setting [1]) and at IRAK4 (setting [2]) was 10 to 100 nM in each case.
In the case of `Cn1c(=O)n(C2CCC(=O)NC2=O)c2cccc(CCCOC3CCN([C@H]4CC[C@H](Nc5ncnc6ccc(C#N)cc56)CC4)CC3)c21` (some centres unmarked) [I-304, 4-[[4-[4-[3-[1-(2,6-dioxo-3-piperidyl)-3-methyl-2-oxo-benzimidazol-4-yl]propoxy]-1-piperidyl]cyclohexyl]amino] quinazoline-6-carbonitrile], the IC50 in the experiment with OCI-LY10 (Homo sapiens, OCI-Ly10, 96 h) was greater than 1000 nM. Further, the DC50 on IRAK4 (setting [1]) and at IRAK4 (setting [2]) was greater than 1000 nM in each case.
`Cn1c(=O)n([C@H]2CCC(=O)NC2=O)c2cccc(CCCOC3CCN(C[C@H]4CC[C@H](n5cc(NC(=O)c6cnn7ccc(N8CCOCC8)nc67)c(C(F)F)n5)CC4)CC3)c21` [I-310, N-(3-(difluoromethyl)-1-((1r,4r)-4-((4-(3-(1-((S)-2,6-dioxopiperidin-3-yl)-3-methyl-2-oxo-2,3-dihydro-1H-benzo [d]imidazol-4-yl)propoxy)piperidin-1-yl)methyl)cyclohexyl)-1H-pyrazol-4-yl)-5-morpholinopyrazolo[1,5-a]pyrimidine-3-carboxamide]: the IC50 in the experiment with OCI-LY10 (Homo sapiens, OCI-Ly10, 96 h) was greater than 1000 nM. In addition, the DC50 on IRAK4 (setting [1]) is less than 10 nM.
With `CN(CC1CCC(n2cc(NC(=O)c3cnn4ccc(C5CCOCC5)nc34)c(C(F)F)n2)CC1)[C@H]1CC[C@H](Nc2cccc3c2C(=O)N(C2CCC(=O)NC2=O)C3=O)CC1` (some centres unmarked) [I-478], the concentration for half-maximal inhibition (IC50) with OCI-LY10 (Homo sapiens, OCI-Ly10, 96 h) is greater than 1000 nM. For the same compound, the half-maximal degradation concentration (DC50) on IRAK4 (OCI-LY10, 4 hrs, read-out: IRAK4 MSD degradation in OCI-LY10 at 4 hrs: DC50) lay in the range of 100 to 1000 nM; at IRAK4 (OCI-LY10, 24 hrs, read-out: IRAK4 MSD degradation in OCI-LY10 at 24 hrs: DC50), 10 to 100 nM.
Turning to `Cn1c(=O)n(C2CCC(=O)NC2=O)c2ccc(CCCOC3CCN(C[C@H]4CC[C@H](n5cc(NC(=O)c6cnn7ccc(N8CCNCC8)nc67)c(C(F)F)n5)CC4)CC3)cc21` (some centres unmarked) [I-162], in the experiment on OCI-LY10 (Homo sapiens, OCI-Ly10, 96 h), the half-maximal inhibitory concentration (IC50) was greater than 1000 nM. Besides, the DC50 on IRAK4 (setting [1]) was less than 10 nM.
Taken in the same sequence, the figures for `Cn1c(=O)n(C2CCC(=O)NC2=O)c2cccc(CN3CCC(O[C@H]4C[C@H](N(C)C[C@H]5CC[C@H](n6cc(NC(=O)c7coc(-c8ccnc(NCC9CC9)c8)n7)c(C(F)F)n6)CC5)C4)CC3)c21` (some centres unmarked) [I-249] were less than 50 nM and 10 to 100 nM.
As to `CN1C(=O)C(C2CCC(=O)NC2=O)c2ccc(CN3CCC(N(C)C[C@H]4CC[C@H](n5cc(NC(=O)c6coc(-c7ccnc(NCC8CC8)c7)n6)c(C(F)F)n5)CC4)CC3)cc21` (some centres unmarked) [I-239], the half-maximal inhibitory concentration (IC50) with OCI-LY10 is greater than 1000 nM. At IRAK4 (setting [1]), the DC50 was in the range of 10 to 100 nM.
